Test results reported in ChEMBL document CHEMBL4765227, “Hit to lead optimization of a series of N-[4-(1,3-benzothiazol-2-yl)phenyl]acetamides as monoacylglycerol lipase inhibitors with potential anticancer activity” (Eur J Med Chem, 2016).

Columns and labels:
Type in all cases: functional
UACC-257 = experiment: Growth inhibition of human UACC-257 cells incubated for 48 hrs by sulforhodamine B assay
NCI-H226 = experiment: Growth inhibition of human NCI-H226 cells incubated for 48 hrs by sulforhodamine B assay
MDA-MB-231 = experiment: Growth inhibition of human MDA-MB-231 cells incubated for 48 hrs by sulforhodamine B assay
CCRF-CEM = experiment: Growth inhibition of human CCRF-CEM cells incubated for 48 hrs by sulforhodamine B assay
HOP-62 = experiment: Growth inhibition of human HOP-62 cells incubated for 48 hrs by sulforhodamine B assay; conditions: for CC50: read-out: LC50 (the source's name)
EKVX = experiment: Growth inhibition of human EKVX cells incubated for 48 hrs by sulforhodamine B assay

Row | SMILES | GI50 (UACC-257) [µM] | LC50 (UACC-257) [µM] | TGI (UACC-257) [µM] | GI50 (NCI-H226) [µM] | LC50 (NCI-H226) [µM] | TGI (NCI-H226) [µM] | GI50 (MDA-MB-231) [µM] | LC50 (concentration causing 50% cell kill) (MDA-MB-231) [µM] | TGI (MDA-MB-231) [µM] | GI50 (CCRF-CEM) [µM] | TGI (CCRF-CEM) [µM] | CC50 (CCRF-CEM; read-out: LC50 (the source's name)) [µM] | GI50 (HOP-62) [µM] | TGI (HOP-62) [µM] | CC50 (HOP-62) [µM] | GI50 (EKVX) [µM] | LC50 (EKVX) [µM] | TGI (EKVX) [µM]
1 | O=C(CNc1c(Cl)cccc1Cl)Nc1ccc(-c2nc3ccccc3s2)cc1 | 3.61 | 63.1 | 11.9 | 2.02 | > 100 | 5.32 | 2.73 | > 100 | 7.35 | 0.657 | 2.97 | 45.9 | 3.31 | 11.8 | 77.8 | 8.29 | 55.2 | 22.6
2 | O=C(CNc1ccc(Cl)cc1)Nc1ccc(-c2nc3ccccc3s2)cc1 | 3.12 | 57.7 | 11.1 | 2.25 | > 100 | 7.1 | 2.86 | > 100 | 10.3 |  |  |  | 3.34 | 12.9 | > 100 | 4.36 | 66.9 | 19.1
